Experimental data as given in US11466044B2 (WAYNE STATE UNIVERSITY, priority 2017, dated 2022).
Converted amounts (≈) assume the structure as drawn.

What was measured:
[1] = system: mitochondrial ribosome (human chimeric); format: biochemical; conditions: ribosomes with a human mitochondrial decoding site; read-out: IC50 Mitoch.
From the text: (§1) The antiribosomal activity of these compounds was investigated with cell-free translation assays using both wild type bacterial ribosomes and hybrid ribosomes carrying eukaryotic decoding A sites enabling the prediction of selectivity.

[2] = system: cytosolic ribosome (human chimeric); format: biochemical; conditions: ribosomes with a human cytosolic decoding site; read-out: IC50 Cytosolic
From the text: as §1

[3] = system: wild type bacterial ribosomes; test: in-vitro translation assay, bacterial ribosomes; format: biochemical; conditions: Mycobacterium smegmatis ribosomes; read-out: IC50 Bacterial
From the text: as §1

E coli wild type = test: MIC by broth microdilution, wild type E coli; format: cell-based; conditions: for MIC AG001 E. coli WT: clinical isolate AG001, WT; for MIC AG055 E. coli WT: clinical isolate AG055, WT
P aeruginosa = test: MIC by broth microdilution, P aeruginosa isolates; format: cell-based, Pseudomonas aeruginosa; conditions: for MIC AG031 P. aer. APH(3′)-II: clinical isolate AG031, APH(3′)-II; for MIC AG032 P. aer. APH(3′)-II: clinical isolate AG032, APH(3′)-II
[4] = system: A1555G mutant mitochondrial ribosome (human chimeric); test: in-vitro translation assay, human chimeric ribosomes, A1555G mutant mitochondrial decoding site; format: biochemical; conditions: human mitochondrial decoding site with A1555G point mutation; read-out: IC50 Mitoch. A1555G
From the text: as §1

[5] = system: rabbit reticulocyte ribosomes; test: in-vitro translation assay, rabbit reticulocyte ribosomes; format: biochemical; conditions: mammalian cytosolic ribosomes (rabbit)
[6] = system: E coli carrying specific resistance determinants; test: MIC by broth microdilution, E coli carrying specific resistance determinants; format: cell-based; conditions: for MIC AG003 E. coli AAC(3)-II: clinical isolate AG003, AAC(3)-II
MRSA = test: MIC by broth microdilution, MRSA isolates; format: cell-based; conditions: for MIC AG038 MRSA: clinical isolate AG038; for MIC AG039 MRSA AAC(6′)-I ANT(4′)-I: clinical isolate AG039, AAC(6′)-I ANT(4′)-I; for MIC AG042 MRSA AAC(6′)-I ANT(4′)-I APH(2′): clinical isolate AG042, AAC(6′)-I ANT(4′)-I APH(2′); for MIC AG044 MRSA: clinical isolate AG044

`NCC1OC(OC2C(CNC(N)=O)OC(OC3C(O)C(N)CC(N)C3OC3OC(CO)C(O)C(O)C3N)C2O)C(N)C(O)C1O` (stereo not shown) [DC141] showed an IC50 [1] of 70 µM, an IC50 [2] of 89 µM and an IC50 [3] of 0.03 µM. For the same molecule, the “MIC AG001 E. coli WT” value (E coli wild type) was 8 µg/mL (≈ 12.2 µM), the “MIC AG055 E. coli WT” value (E coli wild type) was 4 µg/mL (≈ 6.08 µM) and the “MIC AG031 P. aer. APH(3′)-II” value (P aeruginosa) was >128 µg/mL. The “MIC AG032 P. aer. APH(3′)-II” value (P aeruginosa) was >128 µg/mL, the IC50 [4] was 28 µM and the IC50 [5] was 29 µM. For the same molecule, the “MIC AG003 E. coli AAC(3)-II” value [6] was 4 µg/mL (≈ 6.08 µM), the “MIC AG038 MRSA” value (MRSA) was 4 to 8 µg/mL and the “MIC AG039 MRSA AAC(6′)-I ANT(4′)-I” value (MRSA) was >128 µg/mL. For the same molecule, the “MIC AG042 MRSA AAC(6′)-I ANT(4′)-I APH(2′)” value (MRSA) was >128 µg/mL and the “MIC AG044 MRSA” value (MRSA) was 4 µg/mL (≈ 6.08 µM).

For `NC[C@H]1O[C@H](O[C@H]2[C@H](O[C@@H]3O[C@H](CN)[C@@H](O)[C@H]3O)[C@@H](O)[C@H](N)C[C@@H]2N)[C@H](N)[C@@H](O)[C@@H]1O` [DC048], the IC50 [1] was 76 µM, the IC50 [3] was 0.09 µM and the “MIC AG001 E. coli WT” value (E coli wild type) was 32 to 64 µg/mL. For the same molecule, the “MIC AG055 E. coli WT” value (E coli wild type) was 32 µg/mL (≈ 70.6 µM), the IC50 [4] was 34 µM and the IC50 [5] was 50 µM. The “MIC AG003 E. coli AAC(3)-II” value [6] was 16 µg/mL (≈ 35.3 µM), the “MIC AG038 MRSA” value (MRSA) was 8 µg/mL (≈ 17.6 µM) and the “MIC AG039 MRSA AAC(6′)-I ANT(4′)-I” value (MRSA) was >64 µg/mL. The “MIC AG042 MRSA AAC(6′)-I ANT(4′)-I APH(2′)” value (MRSA) was >128 µg/mL and the “MIC AG044 MRSA” value (MRSA) was 8 to 16 µg/mL.

In the case of `CCCC(O)C1OC(OC2C(N)CC(N)C(O)C2OC2OC(CO)C(OC3OC(CN)C(O)C(O)C3N)C2O)C(N)C(O)C1O` (stereo not shown) [DC142], the IC50 [1] is reported as 107 µM, the IC50 [2] is reported as 34 µM and the IC50 [3] is reported as 0.04 µM. The “MIC pH430 WT” value (E coli wild type; E. coli strain pH430, WT) was 1 μg/ml, the “MIC AG001 E. coli WT” value (E coli wild type) was 8 µg/mL (≈ 12.2 µM) and the “MIC AG055 E. coli WT” value (E coli wild type) was 8 µg/mL (≈ 12.2 µM). The “MIC AG031 P. aer. APH(3′)-II” value (P aeruginosa) was >128 µg/mL, the “MIC AG032 P. aer. APH(3′)-II” value (P aeruginosa) was >128 µg/mL and the IC50 [4] was 20 µM. The IC50 [5] was 12 µM, the “MIC AG036 ANT(4′,4′′)” value ([6]; E. coli strain AG036, ANT(4′,4′′)) was 32 to 64 µg/mL and the “MIC AG037 APH(3′)-III” value ([6]; E. coli strain AG037, APH(3′)-III) was >32 µg/mL. The “MIC AG103 armA” value ([6]; E. coli strain AG103, armA) was 1 µg/mL (≈ 1.52 µM), the “MIC pH414 AAC(6′)-I” value ([6]; E. coli strain pH414, AAC(6′)-I) was 1 μg/ml and the “MIC pH415 AAC(6′)-II” value ([6]; E. coli strain pH415, AAC(6′)-II) was 1 μg/ml. The “MIC pH421 APH(3)-I” value ([6]; E. coli strain pH421, APH(3)-I) was >32 μg/ml, the “MIC pH422 APH(3′)-II” value ([6]; E. coli strain pH422, APH(3′)-II) was >32 μg/ml and the “MIC pH423 APH(3′)-VI” value ([6]; E. coli strain pH423, APH(3′)-VI) was >32 μg/ml. The “MIC pH432 ANT(4′)” value ([6]; E. coli strain pH432, ANT(4′)) was 1 μg/ml, the “MIC AG003 E. coli AAC(3)-II” value [6] was 8 µg/mL (≈ 12.2 µM) and the “MIC AG038 MRSA” value (MRSA) was 4 µg/mL (≈ 6.08 µM). For the same molecule, the “MIC AG039 MRSA AAC(6′)-I ANT(4′)-I” value (MRSA) was >128 µg/mL, the “MIC AG042 MRSA AAC(6′)-I ANT(4′)-I APH(2′)” value (MRSA) was >128 µg/mL and the “MIC AG044 MRSA” value (MRSA) was 2 µg/mL (≈ 3.04 µM).
